From the NIST ThermoML archive (doi:10.1021/acs.jced.7b01112) come the findings set out here.

The nature of data set [1]: Molar enthalpy of transition or fusion. The note with it: Crystal; DSC.
The conditions of data set [2]: Crystal; DTA.

Each structure is given as a SMILES string. Numbers after ± are expanded uncertainties.

Regarding `O=C(O)c1ccc(C(=O)O)o1` [2,5-furandicarboxylic acid], the “Molar enthalpy of transition or fusion” value in data set [1] amounted to 13.2 ± 0.837 kcal/mol. For the same compound, in data set [2], the Normal melting temperature turned out to be 341.30 ± 0.7 °C.
